{"source": "paper PMC11648230", "about": "“Structure–function analysis of tRNA t^6A-catalysis, assembly, and thermostability of Aquifex aeolicus TsaD2B2 tetramer in complex with TsaE” (The Journal of Biological Chemistry, 2024)", "biological_target": "T1, A. aeolicus TsaD2B2 (TsaD-TsaB) (Aquifex aeolicus, UniProt O66986)", "T1 construct": "recombinant from E. coli; co-expressed (pET21a-BC10_DZop), C-terminal 6His on TsaB; tetramer; Cys10 of TsaD oxidized (CSO10) in crystals; with tRNA threonylcarbamoyladenosine biosynthesis protein TsaB", "T1 sequence (O66494 entry or part of it)": "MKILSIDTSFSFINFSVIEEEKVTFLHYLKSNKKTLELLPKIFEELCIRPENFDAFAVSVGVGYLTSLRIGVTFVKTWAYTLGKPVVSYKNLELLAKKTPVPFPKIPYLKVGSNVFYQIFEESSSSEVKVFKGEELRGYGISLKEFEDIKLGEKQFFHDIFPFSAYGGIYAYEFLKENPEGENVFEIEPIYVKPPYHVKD", "T1 sequence (O66986 whole entry)": "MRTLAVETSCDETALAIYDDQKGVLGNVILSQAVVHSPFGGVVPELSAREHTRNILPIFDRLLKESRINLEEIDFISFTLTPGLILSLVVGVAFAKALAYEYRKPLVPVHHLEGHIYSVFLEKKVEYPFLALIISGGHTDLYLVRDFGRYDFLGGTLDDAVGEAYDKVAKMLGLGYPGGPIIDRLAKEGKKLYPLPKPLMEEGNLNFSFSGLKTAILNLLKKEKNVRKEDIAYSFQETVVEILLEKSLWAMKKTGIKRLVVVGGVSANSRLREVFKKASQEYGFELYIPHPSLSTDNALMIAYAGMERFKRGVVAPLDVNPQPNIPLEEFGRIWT", "assay": "LC-MS of tRNA t6A formation", "type": "biochemical", "conditions": "isolated TC-AMP 30 uM, EDTA-dialyzed TsaD2B2 plus MgCl2, FeCl2 or ZnCl2 100 uM, 60 uM tRNA-Lys(UUU), no TsaE", "data": [{"smiles": "C[C@@H](O)[C@H](NC(=O)OP(=O)(O)OC[C@H]1O[C@@H](n2cnc3c(N)ncnc32)[C@H](O)[C@@H]1O)C(=O)O", "note": "[TC-AMP]", "values": [{"measurement": "LC-MS of tRNA t6A formation", "value": "we only used EDTA-dialyzed TsaD2B2, HPLC-purified TC-AMP, and SEC-purified IVT tRNA^LysUUU"}]}]}
